From patent publication EP4692089A1, “NITROGEN-CONTAINING HETEROCYCLIC COMPOUND AS AAK1 INHIBITOR” (Alicorn Pharmaceutical Co., Ltd., priority 2023, dated 2024) come the findings set out here.

Assay [1] concerns the target T1, AAK1 (30-330) protein (Homo sapiens, UniProt Q2M2I8).
T1 construct: (His)6x (N); TEV protease cleavage site (N); made in house; host or cells: Escherichia coli BL21(DE3)
Description: CETSA test of binding ability to AAK1 protein (Western blot). Here is the method: Experimental objective: To detect the binding ability of compounds to AAK1 protein by means of a CETSA experiment.
Background principle: The CETSA experiment is a molecular detection means for measuring the affinity between drugs and target proteins. […] When a candidate drug is co-incubated with a target protein, if the candidate drug is an inhibitor of AAK1, it can bind to AAK1. […] On the contrary, the stability of the AAK1 protein after heating will be poorer, and the amount of the detected protein will be lower. In this way, the binding ability of the drug to the target protein can be evaluated, which is used for the screening of AAK1 protein inhibitors.
(§1) Expression of AAK1 (30-330) protein: The AAK1 sequence (residues 30-330) was cloned into the pET24N vector with an N-terminal (His)6x tag and a tobacco etch virus (TEV) protease cleavage site. The constructed vector was transformed into Escherichia coli BL21(DE3). When the bacteria were cultured with shaking to reach an OD value of 0.6, 1 mM IPTG was added. […] The bacterial cells were collected and subjected to ultrasonic disruption. The supernatant was obtained by centrifugation, and the protein was purified using Ni-NTA. After dialysis, the concentration and purity of the protein were determined.
CETSA sample preparation: Samples were incubated with candidate drugs, control drugs, and control reagents separately for 30 minutes. Each group of samples was heated at approximately 10 pre-set temperature points. After being returned to room temperature, the samples were centrifuged at 20000 g, and the supernatants were collected. Protein samples were denatured by heating at 100°C for 10 minutes with a sample buffer. After the samples were returned to room temperature, Western blot detection was performed on them; the protein loading amount was controlled at 20 µg. […] The same operations were followed, and Western blot detection was conducted. Protein electrophoresis: The voltage for the stacking gel was set at 60 V, and that for the separating gel was set at 120 V. After electrophoresis, electrotransfer was initiated. Electrotransfer conditions were set at 250 mA for 2 h. Blocking with 5% BSA was performed for 1 h. A specific primary antibody was added, and incubation was carried out overnight at 4°C on a shaker. Washing with TBST was conducted 4 times, with 2.5 minutes each time. A secondary antibody was incubated on a shaker at room temperature for 1 h. Washing with TBST was conducted 4 times, with 2.5 minutes each time. ECL was used for development to detect the expression levels of AAK1 protein in different groups and at each temperature point. Western blot bands were processed and converted using Image J and GraphPad software to calculate EC50.
(In general: Immunoblotting shows a protein as a band on a membrane.)

Assay [2] has as its target T1, AAK1 (30-330) protein. Description: AAK1 kinase assay (ADP generated, detected by HPLC). Type of assay: biochemical. Conditions: 3.5 nM AAK1, 22 µM ATP, 25°C, 3 h.
From the text: Experimental objective: The objective of this test example is to test the effect of compounds on AAK1 kinase function.
Background principle: AAK1 phosphorylates the threonine residue in the micro-subunit of AP2 (AP2M1). In this process, ATP provides phosphate groups to generate ADP. Therefore, the activity of AAK1 kinase can be evaluated by detecting the amount of ADP generated.
as §1
The reaction mixture was incubated in a metal bath at 25°C for 3 h. The reaction was terminated by adding 1% SDS, and the amount of ADP generated was detected by HPLC. IC50 values were calculated using GraphPad software.

Assay [3] deals with T2, AAK1 (Homo sapiens, UniProt Q2M2I8).
T2 construct: HA; expressed in transfected cells; host or cells: 293T cells
T2 sequence (Q2M2I8 whole entry): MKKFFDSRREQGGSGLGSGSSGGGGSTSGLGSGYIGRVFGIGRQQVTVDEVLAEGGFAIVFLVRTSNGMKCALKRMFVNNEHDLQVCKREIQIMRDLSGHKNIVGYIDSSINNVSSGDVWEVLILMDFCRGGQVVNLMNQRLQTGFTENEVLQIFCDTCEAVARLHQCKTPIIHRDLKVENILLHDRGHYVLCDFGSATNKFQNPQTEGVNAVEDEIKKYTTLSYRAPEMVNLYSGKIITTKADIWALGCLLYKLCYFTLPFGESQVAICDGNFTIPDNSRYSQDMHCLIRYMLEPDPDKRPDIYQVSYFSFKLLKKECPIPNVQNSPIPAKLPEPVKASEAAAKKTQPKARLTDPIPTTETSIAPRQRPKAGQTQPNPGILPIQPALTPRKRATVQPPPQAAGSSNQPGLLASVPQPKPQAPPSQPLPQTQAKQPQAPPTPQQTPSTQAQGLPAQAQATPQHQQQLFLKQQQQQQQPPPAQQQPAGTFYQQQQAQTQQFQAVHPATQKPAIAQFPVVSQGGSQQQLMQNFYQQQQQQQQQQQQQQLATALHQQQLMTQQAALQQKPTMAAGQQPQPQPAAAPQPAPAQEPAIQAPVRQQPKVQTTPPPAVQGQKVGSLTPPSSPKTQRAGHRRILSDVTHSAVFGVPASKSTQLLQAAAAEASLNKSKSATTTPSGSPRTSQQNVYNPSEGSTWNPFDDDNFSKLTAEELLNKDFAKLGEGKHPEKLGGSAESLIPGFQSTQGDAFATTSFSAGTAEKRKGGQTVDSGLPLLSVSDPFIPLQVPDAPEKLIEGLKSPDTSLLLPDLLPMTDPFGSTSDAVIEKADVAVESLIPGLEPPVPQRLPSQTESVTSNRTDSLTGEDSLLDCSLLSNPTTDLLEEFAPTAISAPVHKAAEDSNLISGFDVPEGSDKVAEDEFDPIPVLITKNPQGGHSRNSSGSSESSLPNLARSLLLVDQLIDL
Description: Effect on AP2M1 phosphorylation in 293T cells co-transfected with AAK1 and AP2M1 (Western blot, anti-p-AP2M1). The class given is cell-based. The settings on record: p-AP2M1 level, incubated 3 h. An excerpt: Experimental objective: The objective of this test example is to determine the effect of compounds on AP2M1 phosphorylation in cells.
Background principle: Adaptor-associated kinase 1 (AAK1), also known as AP2-associated kinase 1, is a 104 kDa serine/threonine kinase. AAK1 interacts with the adaptor protein 2 (AP2) complex and phosphorylates the threonine residue in the micro-subunit of AP2 (AP2M1), thereby increasing its binding affinity for certain tyrosine-based or dileucine-based sorting signals of some membrane receptors. The inhibitory effect of compounds on AAK1 was evaluated by detecting the phosphorylation level of AP2M1 in cells, so as to screen candidate compounds.
On the second day, each T25 flask was co-transfected with 16 µg of plasmids (1 µg of AAK1/HA/pIRES and 15 µg of Flag/AP2MI/pcDNA) using a Lip2000 transfection reagent. On the third day, the cells were digested and resuspended, centrifuged at 1000 rpm for 5 minutes, and then seeded into 24-well plates at 450 µl per well (2 × 10^5 cells/well). Gradient dilutions of the compounds to be tested were prepared, 50 µl was added to each well, mixed thoroughly, and incubated at 37°C for 3 h. DMSO was set as a control, and cells without plasmid transfection were set as a blank control. After incubation, the cells were collected and washed twice with PBS. The cells were lysed on ice for 30 minutes using a cell lysis buffer containing the protease inhibitor PMSF. The concentration of protein samples was determined using a BCA kit. Protein electrophoresis: The voltage for the stacking gel was set at 60 V, and that for the separating gel was set at 120 V. After electrophoresis, electrotransfer was initiated. Electrotransfer conditions were set at 250 mA for 2 h. Blocking with 5% BSA was performed for 1 h. A specific primary antibody, anti-p-AP2M1, was added, and incubation was carried out overnight at 4°C on a shaker. Washing with TBST was conducted 4 times, with 2.5 minutes each time. A secondary antibody was incubated on a shaker at room temperature for 1 h. Washing with TBST was conducted 4 times, with 2.5 minutes each time. ECL was used for development to detect the expression level of p-AP2M1. Western blot bands were processed and converted using Image J and GraphPad software to calculate IC50.
IC50 (half maximal inhibitory concentration) refers to the half-inhibitory concentration of the measured antagonist. It can indicate the concentration of a certain drug or substance (inhibitor) that achieves half of the inhibition effect on certain biological processes (or certain substances involved in these processes, such as enzymes, cellular receptors, or microorganisms).

T1 sequence (Q2M2I8 30-330): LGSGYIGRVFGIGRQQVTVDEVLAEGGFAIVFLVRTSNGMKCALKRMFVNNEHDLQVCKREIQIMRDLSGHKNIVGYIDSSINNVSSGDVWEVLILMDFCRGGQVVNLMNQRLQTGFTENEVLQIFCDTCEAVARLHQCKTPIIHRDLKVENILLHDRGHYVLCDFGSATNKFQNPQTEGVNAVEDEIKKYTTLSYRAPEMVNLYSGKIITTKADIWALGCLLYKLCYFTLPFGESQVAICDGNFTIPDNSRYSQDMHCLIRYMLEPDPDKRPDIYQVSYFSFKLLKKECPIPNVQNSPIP

In general, EC50 refers to the midpoint of the concentration-response curve. High values mean a need for much substance, low ones an effect from little substance. Broadly, the IC50 is the concentration needed to halve the response being measured. Low readings indicate greater potency in that assay, high ones weaker potency in that assay. In assay [1], `CC(C)C[C@](C)(N)COc1ccc(-c2c[nH]c3ncc(F)cc23)nc1C(F)F` [Compound 26, (S)-1-{[2-(difluoromethyl)-6-(5-fluoro-1H-pyrrolo[2,3-b]pyridin-3-yl)pyridin-3-yl]oxy}-2,4-dimethylpentan-2-amine] showed a concentration giving a half-maximal response (EC50) of 10 to 100 nM. Also, the IC50 is 86.3 nM in assay [2] and 10 to 100 nM in assay [3].
